# Reference: PubChem BioAssay AID330 (DTP/NCI, 2004)
# Values joined by “and” are separate entries in the source; they are usually repeats but may differ in a detail not shown here. Equal entries are not always repeated. Inconclusive results and toxic doses are left out.
# Test system: P388 leukemia ip, CD2F1 mice, survival T/C
# Assay: NCI In Vivo Anticancer Drug Screen. Data for tumor model P388 Leukemia (intraperitoneal) in CD2F1 (CDF1) mice
# Conditions: endpoint: median survival time, higher = longer survival
# Outline: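 Mice carrying the transplanted tumor received test compound or vehicle. Survival was recorded in each group, and the value is the treated-group measurement divided by that of the vehicle-treated control group.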
# [1] = dose: 50.0 mg/kg/injection, schedule: Q01DX005 (ip), vehicle: saline with Tween-80
# [2] = dose: 100.0 mg/kg/injection, schedule: Q01DX005 (ip), vehicle: saline with Tween-80
# [3] = dose: 200.0 mg/kg/injection, schedule: Q01DX005 (ip), vehicle: saline with Tween-80
# [4] = dose: 12.5 mg/kg/injection, schedule: Q01DX009 (ip), vehicle: saline
# [5] = dose: 25.0 mg/kg/injection, schedule: Q01DX009 (ip), vehicle: saline
# [6] = dose: 50.0 mg/kg/injection, schedule: Q01DX005 (ip), vehicle: saline
# [7] = dose: 100.0 mg/kg/injection, schedule: Q01DX005 (ip), vehicle: saline
# [8] = dose: 200.0 mg/kg/injection, schedule: Q01DX005 (ip), vehicle: saline
# [9] = dose: 50.0 mg/kg/injection, schedule: Q01DX009 (ip), vehicle: saline
# [10] = dose: 100.0 mg/kg/injection, schedule: Q01DX009 (ip), vehicle: saline
# [11] = dose: 60.0 mg/kg/injection, schedule: Q01DX005 (ip), vehicle: saline with Tween-80
# [12] = dose: 120.0 mg/kg/injection, schedule: Q01DX005 (ip), vehicle: saline with Tween-80
# [13] = dose: 200.0 mg/kg/injection, schedule: Q01DX009 (ip), vehicle: saline
# [14] = dose: 50.0 mg/kg/injection, schedule: Q01DX005 (ip), vehicle: Klucel (hydroxypropylcellulose) (HPC)
# [15] = dose: 100.0 mg/kg/injection, schedule: Q01DX005 (ip), vehicle: Klucel (hydroxypropylcellulose) (HPC)
# [16] = dose: 200.0 mg/kg/injection, schedule: Q01DX005 (ip), vehicle: Klucel (hydroxypropylcellulose) (HPC)
# [17] = dose: 50.0 mg/kg/injection, schedule: Q01DX009 (ip), vehicle: Klucel (hydroxypropylcellulose) (HPC)
structure (smiles),measurement,setting,value
COC1/C=C\OC2(C)Oc3c(C)c(O)c4c(c3C2=O)C(=O)C=C(NC(=O)C(C)=C/C=C\C(C)C(=O)C(C)C2OC(C)(C)OC(C1C)C2C)C4=O (stereo not given),T/C,"dose: 6.25 mg/kg/injection, schedule: Q04DX003 (ip), vehicle: other",100 % of control
same,T/C,"dose: 12.5 mg/kg/injection, schedule: Q04DX003 (ip), vehicle: distilled water + Tween-80",106 % of control and 110 % of control
same,T/C,"dose: 12.5 mg/kg/injection, schedule: Q04DX003 (ip), vehicle: other",107 % of control
same,T/C,"dose: 25.0 mg/kg/injection, schedule: Q04DX003 (ip), vehicle: distilled water + Tween-80",101 % of control and 121 % of control
same,T/C,"dose: 25.0 mg/kg/injection, schedule: Q04DX003 (ip), vehicle: other",156 % of control
same,T/C,"dose: 50.0 mg/kg/injection, schedule: Q04DX003 (ip), vehicle: distilled water + Tween-80",91 % of control and 95 % of control
same,T/C,"dose: 50.0 mg/kg/injection, schedule: Q04DX003 (ip), vehicle: other",108 % of control
same,T/C,"dose: 100.0 mg/kg/injection, schedule: Q04DX003 (ip), vehicle: distilled water + Tween-80",103 % of control and 97 % of control
same,T/C,"dose: 100.0 mg/kg/injection, schedule: Q04DX003 (ip), vehicle: other",118 % of control
same,T/C,"dose: 200.0 mg/kg/injection, schedule: Q04DX003 (ip), vehicle: distilled water + Tween-80",113 % of control and 117 % of control
COC(=O)CC1(C(=O)OC)Oc2ccc(Br)cc2C(=O)N1c1ccc(Br)cc1Cl (stereo not given),T/C,[1],96 % of control
same,T/C,[2],96 % of control
same,T/C,[3],91 % of control
O=c1cc(-c2ccccc2)oc2c(O)c(O)cc(O)c12,T/C,"dose: 50.0 mg/kg/injection, schedule: Q04DX003 (ip), vehicle: Klucel (hydroxypropylcellulose) (HPC)",105 % of control
same,T/C,"dose: 100.0 mg/kg/injection, schedule: Q04DX003 (ip), vehicle: Klucel (hydroxypropylcellulose) (HPC)",104 % of control
same,T/C,"dose: 200.0 mg/kg/injection, schedule: Q04DX003 (ip), vehicle: Klucel (hydroxypropylcellulose) (HPC)",100 % of control
same,T/C,"dose: 400.0 mg/kg/injection, schedule: Q04DX003 (ip), vehicle: Klucel (hydroxypropylcellulose) (HPC)",92 % of control
COc1cc(N(CCCl)CCCl)ccc1NC(=O)c1ccccc1,T/C,"dose: 6.25 mg/kg/injection, schedule: Q01DX009 (ip), vehicle: saline",150 % of control
same,T/C,"dose: 6.25 mg/kg/injection, schedule: Q04DX003 (ip), vehicle: saline with Tween-80",109 % of control
same,T/C,[4],168 % of control
same,T/C,"dose: 12.5 mg/kg/injection, schedule: Q04DX003 (ip), vehicle: saline with Tween-80",118 % of control
same,T/C,"dose: 16.5 mg/kg/injection, schedule: Q04DX003 (ip), vehicle: saline sonified",113 % of control
same,T/C,[5],100 % of control
same,T/C,"dose: 37.5 mg/kg/injection, schedule: Q04DX003 (ip), vehicle: saline sonified",181 % of control
CC(=O)/C(=C\c1ccc(/C=C(\C(C)=O)C(=O)CCN(C)C)cc1)C(=O)CCN(C)C,T/C,[1],109 % of control and 118 % of control
same,T/C,[2],120 % of control
same,T/C,[3],105 % of control
same,T/C,"dose: 400.0 mg/kg/injection, schedule: Q01DX005 (ip), vehicle: saline with Tween-80",120 % of control
CCCS(=N)(=O)CCC(N)C(=O)O (stereo not given),T/C,"dose: 25.0 mg/kg/injection, schedule: Q01DX005 (ip), vehicle: saline",93 % of control
same,T/C,[6],98 % of control
same,T/C,[7],107 % of control
same,T/C,[8],112 % of control
COc1ccc(CCN2C(=O)CC(CC3=NCCc4cc(OC)c(OC)cc43)CC2=O)cc1OC,T/C,[6],103 % of control
same,T/C,[7],95 % of control
C[n+]1ccn(Cc2ccc([N+](=O)[O-])cc2)c1,T/C,[9],115 % of control
same,T/C,[10],102 % of control
C=C1C(=O)C(CCCC)=C(CCC)C1O (stereo not given),T/C,[11],100 % of control
same,T/C,[12],107 % of control
CCC1(C(=O)c2ccccc2)C(C(=O)OC)=NC(=S)N=C1C(=O)OC,T/C,[11],99 % of control
same,T/C,[12],90 % of control
same,T/C,"dose: 240.0 mg/kg/injection, schedule: Q01DX005 (ip), vehicle: saline with Tween-80",100 % of control
Cc1cccc(C)c1N=Cc1ccc([N+](=O)[O-])cc1,T/C,[9],100 % of control
same,T/C,[10],99 % of control
same,T/C,[13],102 % of control
Cc1ncc(CO)c(C=Nc2ccccc2N=Cc2c(CO)cnc(C)c2O)c1O.[Zn],T/C,[14],104 % of control
same,T/C,[15],105 % of control
same,T/C,[16],101 % of control
O=C(Nc1ccc(Br)c2ccccc12)c1ccc2ccccc2c1O,T/C,[11],91 % of control
same,T/C,[12],92 % of control
CC(C)=CCOc1ccc2ccc(=O)oc2c1,T/C,"dose: 5.0 mg/kg/injection, schedule: Q01DX009 (ip), vehicle: saline with Tween-80",106 % of control
same,T/C,"dose: 10.0 mg/kg/injection, schedule: Q01DX009 (ip), vehicle: saline with Tween-80",108 % of control
same,T/C,"dose: 20.0 mg/kg/injection, schedule: Q01DX009 (ip), vehicle: saline with Tween-80",103 % of control
CCNC(=O)OCCN(CC)CC,T/C,[9],103 % of control
same,T/C,[10],103 % of control
same,T/C,[13],104 % of control
CCOC(=O)CNC(C)c1ccc(F)cc1 (stereo not given),T/C,[6],100 % of control
same,T/C,[7],105 % of control
same,T/C,[8],103 % of control
Cc1cc2nc(-c3cc4cc(Cl)cc(Cl)c4oc3=O)[nH]c2cc1C,T/C,"dose: 25.0 mg/kg/injection, schedule: Q01DX005 (ip), vehicle: Klucel (hydroxypropylcellulose) (HPC)",98 % of control
same,T/C,[14],95 % of control
same,T/C,[15],96 % of control
same,T/C,[16],96 % of control
CCOC(=O)C(C(=O)OCC)=C(C)C,T/C,"dose: 21.3 mg/kg/injection, schedule: Q01DX009 (ip), vehicle: saline with Tween-80",93 % of control
same,T/C,"dose: 42.5 mg/kg/injection, schedule: Q01DX009 (ip), vehicle: saline with Tween-80",90 % of control
same,T/C,"dose: 85.0 mg/kg/injection, schedule: Q01DX009 (ip), vehicle: saline with Tween-80",91 % of control
same,T/C,"dose: 170.0 mg/kg/injection, schedule: Q01DX009 (ip), vehicle: saline with Tween-80",93 % of control
same,T/C,"dose: 177.0 mg/kg/injection, schedule: Q01DX009 (ip), vehicle: saline with Tween-80",123 % of control
same,T/C,"dose: 400.0 mg/kg/injection, schedule: Q01DX009 (ip), vehicle: saline with Tween-80",120 % of control
C=C(COCNc1ccc(Cl)cc1Cl)C(=O)O,T/C,[17],105 % of control
same,T/C,"dose: 100.0 mg/kg/injection, schedule: Q01DX009 (ip), vehicle: Klucel (hydroxypropylcellulose) (HPC)",89 % of control
same,T/C,"dose: 200.0 mg/kg/injection, schedule: Q01DX009 (ip), vehicle: Klucel (hydroxypropylcellulose) (HPC)",99 % of control
COC(=O)CC(O)(CCCC(C)(C)O)C(=O)OC1C(OC)=CC23CCCN2CCc2cc4c(cc2C13)OCO4 (stereo not given) (tested in a mixture with another compound),T/C,"dose: 0.5 mg/kg/injection, schedule: Q01DX009 (ip), vehicle: saline with Tween-80",153 % of control
same,T/C,"dose: 1.0 mg/kg/injection, schedule: Q01DX009 (ip), vehicle: saline with Tween-80",201 % of control
same,T/C,"dose: 2.0 mg/kg/injection, schedule: Q01DX009 (ip), vehicle: saline with Tween-80",206 % of control
O=S1(=O)CCN(C2CC2)CC1,T/C,"dose: 12.5 mg/kg/injection, schedule: Q01DX009 (ip), vehicle: Klucel (hydroxypropylcellulose) (HPC)",98 % of control
same,T/C,"dose: 25.0 mg/kg/injection, schedule: Q01DX009 (ip), vehicle: Klucel (hydroxypropylcellulose) (HPC)",100 % of control
same,T/C,[17],111 % of control
[O]=[Mo](=[O])=[O],T/C,"dose: 60.0 mg/kg/injection, schedule: Q01DX005 (ip), vehicle: saline",100 % of control
same,T/C,"dose: 120.0 mg/kg/injection, schedule: Q01DX005 (ip), vehicle: saline",110 % of control
same,T/C,"dose: 240.0 mg/kg/injection, schedule: Q01DX005 (ip), vehicle: saline",115 % of control
O=c1c2ccccc2ncn1Cc1ccco1,T/C,[1],98 % of control
same,T/C,[2],98 % of control
same,T/C,[3],99 % of control
O=C1NC(=O)C2(CCCc3ccc([N+](=O)[O-])cc32)N1 (stereo not given),T/C,"dose: 50.0 mg/kg/injection, schedule: Q01DX009 (ip), vehicle: saline with Tween-80",99 % of control
same,T/C,"dose: 100.0 mg/kg/injection, schedule: Q01DX009 (ip), vehicle: saline with Tween-80",99 % of control
same,T/C,"dose: 200.0 mg/kg/injection, schedule: Q01DX009 (ip), vehicle: saline with Tween-80",97 % of control
COC1NC(=S)N(C(C)(C)C)C1(C)C (stereo not given),T/C,[4],99 % of control
same,T/C,[5],100 % of control
same,T/C,[9],107 % of control
same,T/C,"dose: 50.0 mg/kg/injection, schedule: Q01DX009 (ip), vehicle: suspension in saline",97 % of control
